Source: PubChem BioAssay AID200 (DTP/NCI, 2004)
“And” between values parts separate entries of the source, which are not always exact repeats. Equal entries are not always repeated. Inconclusive results and toxic doses are left out. Where a SMILES comes first, the peptide text is derived from it.

System: B6C3F1 mice, B16 melanoma ip, median survival T/C
Assay: NCI In Vivo Anticancer Drug Screen. Data for tumor model B16 Melanoma (intraperitoneal) in B6C3F1 mice
Conditions: endpoint: median survival time, higher = longer survival
Method in brief: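 Readout: survival or tumor size in treated mice relative to vehicle controls (T/C). Model uses transplantable tumors grown in mice.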

[1] = dose: 4.0 mg/kg/injection, schedule: Q01DX009 (ip), vehicle: saline
[2] = dose: 8.0 mg/kg/injection, schedule: Q01DX009 (ip), vehicle: saline
[3] = dose: 6.25 mg/kg/injection, schedule: Q01DX009 (ip), vehicle: saline with Tween-80
[4] = dose: 12.5 mg/kg/injection, schedule: Q01DX009 (ip), vehicle: saline with Tween-80
[5] = dose: 25.0 mg/kg/injection, schedule: Q01DX009 (ip), vehicle: saline with Tween-80
[6] = dose: 100.0 mg/kg/injection, schedule: Q01DX009 (ip), vehicle: saline
[7] = dose: 200.0 mg/kg/injection, schedule: Q01DX009 (ip), vehicle: saline

With CC(=O)OC1C(O)C(C)OC(OC2C(OC(=O)C3CCC4C(C3)OC3(CC(OC(=O)/C=C/c5ccccc5)C(C)CO3)C43CO3)OC(C)C(O)C2OC(C)=O)C1O (configuration not stated) the T/C (dose: 0.38 mg/kg/injection, schedule: Q03HX024 (ip), vehicle: other) was 111 % of control, the T/C (dose: 0.75 mg/kg/injection, schedule: Q03HX024 (ip), vehicle: other) was 120 % of control and the T/C (dose: 0.9 mg/kg/injection, schedule: Q01DX005 (iv), vehicle: other) was 111 % of control. For the same compound, the T/C (dose: 1.0 mg/kg/injection, schedule: Q01DX009 (ip), vehicle: distilled water + alcohol) was 122 % of control, the T/C (dose: 1.0 mg/kg/injection, schedule: Q01DX009 (ip), vehicle: other) was 120 % of control and 122 % of control and the T/C (dose: 1.0 mg/kg/injection, schedule: Q01DX009 (ip), vehicle: saline + Tween-80 + alcohol) was 116 % of control. For the same compound, the T/C (dose: 1.0 mg/kg/injection, schedule: Q01DX009 (ip), vehicle: saline + alcohol) was 110 % of control and 115 % of control, the T/C (dose: 1.13 mg/kg/injection, schedule: Q03HX008 (ip), vehicle: other) was 123 % of control and the T/C (dose: 1.8 mg/kg/injection, schedule: Q01DX005 (iv), vehicle: other) was 103 % of control. For the same compound, the T/C (dose: 2.0 mg/kg/injection, schedule: Q01DX009 (ip), vehicle: distilled water + alcohol) was 158 % of control, the T/C (dose: 2.0 mg/kg/injection, schedule: Q01DX009 (ip), vehicle: other) was 152 % of control and the T/C (dose: 2.0 mg/kg/injection, schedule: Q01DX009 (ip), vehicle: saline + Tween-80 + alcohol) was 157 % of control. For the same compound, the T/C (dose: 2.25 mg/kg/injection, schedule: Q01DX001 (iv), vehicle: other) was 114 % of control, the T/C (dose: 2.25 mg/kg/injection, schedule: Q03HX008 (ip), vehicle: other) was 119 % of control and the T/C (dose: 3.0 mg/kg/injection, schedule: Q04DX003 (ip), vehicle: other) was 122 % of control. The T/C (dose: 3.6 mg/kg/injection, schedule: Q01DX005 (iv), vehicle: other) was 107 % of control, the T/C (dose: 4.0 mg/kg/injection, schedule: Q01DX009 (ip), vehicle: distilled water + alcohol) was 184 % of control and the T/C (dose: 4.0 mg/kg/injection, schedule: Q01DX009 (ip), vehicle: other) was 175 % of control. For the same compound, the T/C (dose: 4.0 mg/kg/injection, schedule: Q01DX009 (ip), vehicle: saline + Tween-80 + alcohol) was 185 % of control, the T/C [1] was 163 % of control and the T/C (dose: 4.0 mg/kg/injection, schedule: Q01DX009 (oral), vehicle: other) was 102 % of control. The T/C (dose: 4.0 mg/kg/injection, schedule: Q01DX009 (sc), vehicle: other) was 108 % of control, the T/C (dose: 4.5 mg/kg/injection, schedule: Q01DX001 (ip), vehicle: other) was 117 % of control and the T/C (dose: 4.5 mg/kg/injection, schedule: Q01DX001 (iv), vehicle: other) was 105 % of control. The T/C (dose: 7.2 mg/kg/injection, schedule: Q01DX005 (iv), vehicle: other) was 119 % of control, the T/C (dose: 8.0 mg/kg/injection, schedule: Q01DX009 (ip), vehicle: distilled water + alcohol) was 176 % of control and the T/C (dose: 8.0 mg/kg/injection, schedule: Q01DX009 (ip), vehicle: other) was 158 % of control and 174 % of control. The T/C (dose: 8.0 mg/kg/injection, schedule: Q01DX009 (ip), vehicle: saline + Tween-80 + alcohol) was 182 % of control, the T/C [2] was 161 % of control and the T/C (dose: 8.0 mg/kg/injection, schedule: Q01DX009 (oral), vehicle: other) was 104 % of control. For the same compound, the T/C (dose: 8.0 mg/kg/injection, schedule: Q01DX009 (sc), vehicle: other) was 106 % of control, the T/C (dose: 8.0 mg/kg/injection, schedule: Q02DX005 (ip), vehicle: saline + Tween-80 + alcohol) was 158 % of control and the T/C (dose: 9.0 mg/kg/injection, schedule: Q01DX001 (ip), vehicle: other) was 114 % of control. For the same compound, the T/C (dose: 9.0 mg/kg/injection, schedule: Q01DX001 (iv), vehicle: other) was 111 % of control, the T/C (dose: 12.0 mg/kg/injection, schedule: Q04DX003 (ip), vehicle: saline + alcohol) was 124 % of control and the T/C (dose: 14.4 mg/kg/injection, schedule: Q01DX005 (ip), vehicle: other) was 160 % of control. For the same compound, the T/C (dose: 14.4 mg/kg/injection, schedule: Q01DX005 (iv), vehicle: other) was 113 % of control, the T/C (dose: 16.0 mg/kg/injection, schedule: Q01DX009 (ip), vehicle: distilled water + alcohol) was 150 % of control and the T/C (dose: 16.0 mg/kg/injection, schedule: Q01DX009 (ip), vehicle: other) was 177 % of control and 188 % of control. The T/C (dose: 16.0 mg/kg/injection, schedule: Q01DX009 (ip), vehicle: saline + Tween-80 + alcohol) was 179 % of control, the T/C (dose: 16.0 mg/kg/injection, schedule: Q01DX009 (oral), vehicle: other) was 102 % of control and the T/C (dose: 16.0 mg/kg/injection, schedule: Q01DX009 (sc), vehicle: other) was 114 % of control. For the same compound, the T/C (dose: 16.0 mg/kg/injection, schedule: Q02DX005 (ip), vehicle: saline + Tween-80 + alcohol) was 166 % of control, the T/C (dose: 16.0 mg/kg/injection, schedule: Q02DX005 (ip), vehicle: saline + alcohol) was 155 % of control and the T/C (dose: 18.0 mg/kg/injection, schedule: Q01DX001 (ip), vehicle: other) was 120 % of control. The T/C (dose: 18.0 mg/kg/injection, schedule: Q01DX001 (iv), vehicle: other) was 117 % of control, the T/C (dose: 32.0 mg/kg/injection, schedule: Q01DX009 (oral), vehicle: other) was 101 % of control and the T/C (dose: 32.0 mg/kg/injection, schedule: Q01DX009 (sc), vehicle: other) was 112 % of control. The T/C (dose: 32.0 mg/kg/injection, schedule: Q02DX005 (ip), vehicle: saline + alcohol) was 154 % of control, the T/C (dose: 36.0 mg/kg/injection, schedule: Q01DX001 (ip), vehicle: other) was 119 % of control and the T/C (dose: 96.0 mg/kg/injection, schedule: Q04DX003 (ip), vehicle: saline + Tween-80 + alcohol) was 94 % of control.
In the case of CCCCCCCCSC1=C(Cl)C(=O)C(OC)=C(OC)C1=O, the T/C (dose: 1.56 mg/kg/injection, schedule: Q01DX009 (ip), vehicle: saline with Tween-80) was 100 % of control, the T/C (dose: 3.12 mg/kg/injection, schedule: Q01DX009 (ip), vehicle: saline with Tween-80) was 93 % of control and the T/C [3] was 89 % of control.
Clc1ccc(C[P+](c2ccccc2)(c2ccccc2)c2ccccc2)cc1Cl was tested, and the T/C (dose: 0.78 mg/kg/injection, schedule: Q01DX009 (ip), vehicle: Klucel (hydroxypropylcellulose) (HPC)) was 99 % of control, the T/C (dose: 1.56 mg/kg/injection, schedule: Q01DX009 (ip), vehicle: Klucel (hydroxypropylcellulose) (HPC)) was 107 % of control and the T/C (dose: 3.12 mg/kg/injection, schedule: Q01DX009 (ip), vehicle: Klucel (hydroxypropylcellulose) (HPC)) was 103 % of control. For the same compound, the T/C (dose: 12.5 mg/kg/injection, schedule: Q01DX009 (ip), vehicle: Klucel (hydroxypropylcellulose) (HPC)) was 88 % of control.
CC1(c2ccc(Cl)cc2)OC(=O)C(=Cc2ccc([N+](=O)[O-])s2)C(=O)O1 (configuration not stated) was tested, and the T/C [3] was 89 % of control, the T/C [4] was 86 % of control and the T/C [5] was 90 % of control. For the same compound, the T/C (dose: 50.0 mg/kg/injection, schedule: Q01DX009 (ip), vehicle: saline with Tween-80) was 89 % of control.
With C=C1CCOC2(C(O)C(C)(O)CO)NC(=O)C1(O)NC2=O (configuration not stated) the T/C (dose: 50.0 mg/kg/injection, schedule: Q01DX009 (ip), vehicle: saline) was 97 % of control, the T/C [6] was 95 % of control and the T/C [7] was 99 % of control.
In the case of CNc1c(NC)n(C)c(=O)n(C)c1=O, the T/C [6] was 92 % of control, the T/C [7] was 100 % of control and the T/C (dose: 400.0 mg/kg/injection, schedule: Q01DX009 (ip), vehicle: saline) was 96 % of control.
In the case of CC(=O)Oc1ccc2c3c1O[C@H]1[C@@H](OC(C)=O)C=C[C@H]4[C@@H](C2)N(C)CC[C@@]341, the T/C (dose: 0.5 mg/kg/injection, schedule: Q01DX009 (ip), vehicle: saline) was 101 % of control, the T/C (dose: 1.0 mg/kg/injection, schedule: Q01DX009 (ip), vehicle: saline) was 93 % of control and the T/C (dose: 2.0 mg/kg/injection, schedule: Q01DX009 (ip), vehicle: saline) was 90 % of control. For the same compound, the T/C [1] was 100 % of control, the T/C [2] was 98 % of control and the T/C (dose: 16.0 mg/kg/injection, schedule: Q01DX009 (ip), vehicle: saline) was 86 % of control. The T/C (dose: 32.0 mg/kg/injection, schedule: Q01DX009 (ip), vehicle: saline) was 93 % of control, the T/C (dose: 64.0 mg/kg/injection, schedule: Q01DX009 (ip), vehicle: saline) was 102 % of control and the T/C (dose: 128.0 mg/kg/injection, schedule: Q01DX009 (ip), vehicle: saline) was 110 % of control.
For CC(O)C(NC(=O)CNC(=O)CNC(=O)OCc1ccccc1)C(=O)O (configuration not stated) (HELM PEPTIDE1{[O=C(OCc1ccccc1)[*:2]].G.G.[CC(O)C(N[*:1])C(=O)O]}$$$$V2.0), the T/C (dose: 100.0 mg/kg/injection, schedule: Q01DX009 (ip), vehicle: Klucel (hydroxypropylcellulose) (HPC)) was 103 % of control, the T/C (dose: 200.0 mg/kg/injection, schedule: Q01DX009 (ip), vehicle: Klucel (hydroxypropylcellulose) (HPC)) was 106 % of control and the T/C (dose: 400.0 mg/kg/injection, schedule: Q01DX009 (ip), vehicle: Klucel (hydroxypropylcellulose) (HPC)) was 113 % of control.
For COc1cc(C(=O)N/N=C/c2cccc([N+](=O)[O-])c2)cc(OC)c1OC, the T/C [4] was 88 % of control and the T/C [5] was 90 % of control.
